Laboratory results published in patent publication US6803378B2, “HIV integrase inhibitors” (Bristol-Myers Squibb Company, priority 2000, dated 2004).

What was measured:
HIV Integrase [1] = molecular target: T1, HIV Integrase (Human immunodeficiency virus type 1 group M subtype B, UniProt P04585); assay: In vitro activity against integrase, Method B (SPA assay); format: biochemical; conditions: read-out: Percent inhibition of HIV Integrase at 70 uM
T1 construct: 0.26 ng of recombinant integrase was then incubated with the beads
Method: (§1) The in vitro activities, against integrase, of compounds of the present invention were measured by one of the following three methods.
(§2) In Method B, the in vitro activity against integrase was measured by binding, for each reaction, 5 pmole of biotin labeled substrate DNA to 100 ug of Streptavidin coated PVT SPA beads (Amersham Pharmacia Biotech). 0.26 ng of recombinant integrase was then incubated with the beads for 90 min at 37° C. Unbound enzyme was removed by washing the complex followed by addition of inhibitors and 0.1 fmol of P33 labeled target DNA. Reaction was stopped by adding EDTA to a final concentration of 10 mM. Samples were counted in TopCountNXT (Packard) and the CPM was used as a measure of integration. Reaction condition was as described in A. Engelman and R. Craigie, J. Virol. 69, 5908-5911 (1995). The sequences of substrate and target DNA were described in Nucleic Acid Research 22, 1121-1122 (1994).

HIV-1 integrase = molecular target: T2, HIV-1 integrase (Human immunodeficiency virus type 1 group M subtype B, UniProt P04585); assay: In vitro activity against integrase, Method A (immobilized precleaved substrate DNA, biotinylated target DNA, 96 well plate); format: biochemical; conditions: Assay Method A, read-out: Percent inhibition of HIV Integrase at 70 uM
T2 construct: Purified recombinant HIV-1 integrase was incubated with immobilized precleaved substrate DNA
Method: as §1
In Method A, the in vitro activity against integrase was measured in a manner which was similar to previously disclosed methods (cf. Hazuda, D. J.; Felock, P.; Witmer, M.; Wolfe, A.; Stillmock, K.; Grobler, J. A.; Espeseth, A.; Gabryelski, L.; Schleif, W.; Blau, C.; Miller, M. D. Science, 2000, 287, 646) Purified recombinant HIV-1 integrase was incubated with immobilized precleaved substrate DNA in a 96 well plate for 20 min at 37° C. After the integration complex was formed, compounds at desired concentrations were added to the wells followed by a 10 min incubation at 37° C. Biotinyted Target DNA was then added and the reaction was carried out for an additional 1 hour at 37° C. Wells were then washed thoroughly to remove any free DNA and integration activity was measured by using a commercial kit to quantitate the amount of biotinyted target DNA integrated into the substrate.

HIV Integrase [2] = molecular target: T1, HIV Integrase; assay: In vitro activity against integrase, Method C (electroluminescence, ECL assay); format: biochemical; conditions: read-out: Percent inhibition of HIV Integrase at 70 uM
Method: as §1, §2
Method C (Electroluminesence Assay):
The ECL assay of Method C is essentially the same as the SPA assay of Method B, except that 0.5 μg of Streptavidin coated magnetic beads and 0.5 pmol Ru labeled target DNA were used for each reaction instead of SPA beads and P33 labeled DNA. The samples were read in a M8 analyzer (IGEN International, Inc).

Row | SMILES | melting point | inhibition at 70 µM (HIV Integrase [2]) [%] | further results
1 | O=C(O)/C(O)=C/C(=O)N(Cc1ccc(Cl)cc1)Cc1ccc(Cl)c(Cl)c1 | 152 °C (dec.) |  | 
2 | O=C(O)/C(O)=C/C(=O)N(Cc1ccc(F)cc1)Cc1ccc(F)cc1 [Compound 11, 3-[Bis-(4-fluoro-benzyl)-carbamoyl]-2-hydroxy-acrylic acid] | > 147 °C (dec.) |  | inhibition at 70 µM (HIV Integrase [1]): 97%
3 | CN(Cc1ccccc1Cl)C(=O)/C=C(\O)C(=O)O [Compound 10, 3-[(2-Chloro-benzyl)-methyl-carbamoyl]-2-hydroxy-acrylic acid] | 84 to 86 °C |  | inhibition at 70 µM (HIV-1 integrase): 79%
4 | O=C(O)/C(O)=C/C(=O)N(CCc1ccncc1)Cc1ccc(F)cc1 [Compound 86, 3-[(4-Fluoro-benzyl)-(2-pyridin-4-yl-ethyl)-carbamoyl]-2-hydroxy-acrylic acid] |  | 97 | 
5 | O=C(O)/C(O)=C/C(=O)N(CCCc1ccc(-c2ccccc2)cc1)Cc1ccc(F)cc1 [Compound 85, 3-[(3-Biphenyl-4-yl-propyl)-(4-fluoro-benzyl)-carbamoyl]-2-hydroxy-acrylic acid] |  | 94 | 
6 | CN(CCCc1ccc(F)cc1)C(=O)/C=C(\O)C(=O)O [Compound 46, 3-{[3-(4-Fluoro-phenyl)-propyl]-methyl-carbamoyl}-2-hydroxy-acrylic acid] |  | 99 | 
7 | O=C(O)/C(O)=C/C(=O)N(CCCc1ccccc1F)Cc1ccc(F)cc1 [Compound 51, 3-{(4-Fluoro-benzyl)-[3-(2-fluoro-phenyl)-propyl]-carbamoyl}-2-hydroxy-acrylic acid] |  | 100 | 
